Reference: patent EP0314302A2, “Herbicidal o-carbomethoxy-sulfonylureas” (E.I. DU PONT DE NEMOURS AND COMPANY, priority 1987, dated 1989)

Key:
Viola = assay: Test 7 postemergence; assay type: in vivo, Viola spp; conditions: scale 0-100
Description: Individual 11.4-cm plastic pots filled with planting medium were seeded with rape, wild radish (Raphanus raphanistruna). tansy mustard (Descurainia pinnata), ball mustard (Neslia paniculata), black mustard (Brassica nigra), yellow mustard, brown mustard, lentils, safflower, flax, sunflower, peanut, vetch, alfalfa, field bean, pea, violet (Viola spp), Kochia (Kochia spp), Russian thistle (Salsola spp), Matricaria spp, groundsel (Senecio spp), shepherdspurse (Capsella bursa-pastoris), nightshade (Solanum spp), sowthistle (Sonchus spp), sugar beet, wheat, "Bonanza" barley and "Morex" barley, Kentucky bluegrass (Poa pratensis), red clover (Trifolium pratense), dandelion (Taraxacum spp) and buckhorn plantain (Plantago lanceolata).
Plants were treated postemergence with the compound formulated with a non-phytotoxic carrier. Plants were visually rated 18 days after treatment (DAT). Response ratings were based on the scale of 0 to 100 where 0 = no effect, 20 = minimal injury and 100 = complete control.

Chickweed = assay: Test 10 postemergence safety to crops and weed control; assay type: in vivo, Stellaria media; conditions: 16 g/ha, scale 0-100
Description: The object of these tests was to evaluate the compound of this invention for postemergence safety to crops and weed control. Seedling and budded Macedine grapes were grown in 11.4-cm pots. Flax, green foxtail (Setaria viridis), "Morex" barley, wild oats (Avena fatua), "Era" wheat, annual ryegrass (Lolium multiflorum), wild radish (Raphanus raphanistrum), rape, sunflower, chickweed (Stellaria media) and wild buckwheat (Polygonum convolvulus) were seeded in windowsill pots.
The plants were sprayed postemergence with Compound I in a non-phytotoxic solvent. Plants were visually rated 15 and 27 days after treatment (DAT). Injury and weed control ratings were based on the scale of 0 to 100 where 0 = no effect, 20 minimal control and 100 = complete control.

Purple nutsedge = assay: Test 8 postemergence safety to pineapple, turfs and weed control; assay type: in vivo; conditions: scale 0-100
Description: (§1) The object of this test was to evaluate the compound of this invention for postemergence safety to pineapple, turfs and weed control. Climax timothy, Kentucky bluegrass, forage fescue, Kentucky fescue, bermudagrass, bentgrass, annual bluegrass, bahiagrass, purple nutsedge, yellow nutsedge, large crabgrass, perennial ryegrass, annual ryegrass, galium and pineapple were sprayed postemergence with the compound in a non-phytotoxic solvent. Plants were visually rated 36 days after treatment (DAT). Injury ratings were based on the scale of 0 to 100 where 0 = no effect, 20 = minimal effect and 100 = complete control.

Kentucky fescue = assay: as above; assay type: in vivo; conditions: scale 0-100
Description: as §1

Climax timothy = assay: as above; assay type: in vivo; conditions: scale 0-100
Description: as §1

Large crabgrass = assay: as above; assay type: in vivo; conditions: scale 0-100
Description: as §1

Bahiagrass = assay: as above; assay type: in vivo; conditions: scale 0-100
Description: as §1

Bentgrass = assay: as above; assay type: in vivo; conditions: scale 0-100
Description: as §1

Kentucky bluegrass = assay: as above; assay type: in vivo; conditions: scale 0-100
Description: as §1

Galium = assay: as above; assay type: in vivo; conditions: scale 0-100
Description: as §1

Bermudagrass = assay: as above; assay type: in vivo; conditions: scale 0-100
Description: as §1

Annual bluegrass = assay: as above; assay type: in vivo; conditions: scale 0-100
Description: as §1

Pineapple = assay: as above; assay type: in vivo; conditions: scale 0-100
Description: as §1

Perennial ryegrass = assay: as above; assay type: in vivo; conditions: scale 0-100
Description: as §1

Annual ryegrass = assay: as above; assay type: in vivo; conditions: scale 0-100
Description: as §1

Forage fescue = assay: as above; assay type: in vivo; conditions: scale 0-100
Description: as §1

Yellow nutsedge [1] = assay: as above; assay type: in vivo; conditions: scale 0-100
Description: as §1

Yellow nutsedge [2] = assay: Test 11 windowsill flats, postemergence; assay type: in vivo, Cyperus esculentus; conditions: Postemergence 32 g/ha, 0.25% X-77 surfactant, scale 0-100
Description: (§2) Budded citrus seedlings were planted in 30-liter plastic pots which were also seeded with sandbur, guineagrass, narrowleaf panicum, common ragweed, yellow nutsedge, purple nutsedge and bindweed. Compound I was applied preemergence and postemergence to the weeds. Treatments were sprayed to simulate the trunk-to-trunk herbicide application method used in some citrus groves. The compound was also applied postemergence to weeds grown in windowsill flats. The flats were filled with planting medium and seeded with morningglory (Ipomoea spp.). purple nutsedge (Cyperus rotundus), pigweed (Amaranthus spp.), bindweed (Convolvulus spp.), narrowleaf panicum (Panicum maximum), common ragweed (Ambrosia artemisiifolia), sandbur (Cenchrus echinatus), itchgrass (Rottboellia exaltata), johnsongrass (Sorghum halepense), guineagrass (Panicum maximum), smooth crabgrass (Digitaria ischaemum), broadleaf signalgrass (Brachiaria platyphylla), bermudagrass (Cynodon dactylon), goosegrass (Eleusine indica), large crabgrass (Digitaria sanguinalis) and yellow nutsedge (Cyperus esculentus).
(§3) The compound was formulated and sprayed with 0.25% X-77 surfactant in water. Plants were visually rated 21 and 29 days after treatment and compared with appropriate controls. Injury ratings were based on the scale of 0 to 100, where 0 indicates no effect, 20 indicates minimum effect and 100 indicates complete control. […]

Citrus = assay: Test 11 citrus pots, postemergence to the weeds; assay type: in vivo; conditions: Postemergence 32 g/ha, 0.25% X-77 surfactant, scale 0-100
Description: as §2, §3

Narrowleaf panicum = assay: Test 5 sugarcane injury and weed control, postemergence; assay type: in vivo, Panicum maximum; conditions: scale 0-100
Description: Sugarcane (Saccharum spp.) cuttings which had been pre-sprouted were planted in 15-cm plastic pots. Narrowleaf panicum (Panicum maximum), large crabgrass (Digitaria sanguinalis), guineagrass (P. maximum) and itchgrass (Rottboellia exaltata) were seeded in individual 15-cm plastic pots.
The pots were treated postemergence when the plants had 3 to 4 leaves with 2 to 3 tillers with Compound I formulated in a non-phytotoxic carrier made up of acetone-humectant-water-surfactant (22:1:1:0.05 v/v). The degree of crop injury and weed control was visually rated 27 days after treatment (DAT). Plant injury ratings are based on the scale of 0 to 100 where 0 = no effect, 20 = minimal injury and 100 = complete control.

COC(=O)c1cccnc1S(=O)(=O)NC(=O)Nc1nc(OC)cc(OC)n1 [Compound I, 2-[[(4,6-dimethoxypyrimidin-2-yl)aminocarbonyl]aminosulfonyl]-3-pyridinecarboxylic acid, methyl ester]
Plant Injury Rating 18 DAT (Viola; 16 g/ha): 100 | Plant Injury Rating 18 DAT (Viola; 32 g/ha): 100 | Plant Injury Rating 15 DAT (Chickweed): 100 | Plant Injury Rating 36 DAT (Purple nutsedge; 16 g/ha): 50 | Plant Injury Rating 36 DAT (Purple nutsedge; 32 g/ha): 100 | Plant Injury Rating 36 DAT (Kentucky fescue; 16 g/ha): 100 | Plant Injury Rating 36 DAT (Kentucky fescue; 32 g/ha): 100 | Plant Injury Rating 36 DAT (Climax timothy; 16 g/ha): 100 | Plant Injury Rating 36 DAT (Climax timothy; 32 g/ha): 100 | Plant Injury Rating 36 DAT (Large crabgrass; 16 g/ha): 60 | Plant Injury Rating 36 DAT (Large crabgrass; 32 g/ha): 80 | Plant Injury Rating 36 DAT (Bahiagrass; 16 g/ha): 70 | Plant Injury Rating 36 DAT (Bahiagrass; 32 g/ha): 100 | Plant Injury Rating 36 DAT (Bentgrass; 16 g/ha): 70 | Plant Injury Rating 36 DAT (Bentgrass; 32 g/ha): 100 | Plant Injury Rating 36 DAT (Kentucky bluegrass; 16 g/ha): 100 | Plant Injury Rating 36 DAT (Kentucky bluegrass; 32 g/ha): 100 | Plant Injury Rating 36 DAT (Galium; 16 g/ha): 100 | Plant Injury Rating 36 DAT (Galium; 32 g/ha): 100 | Plant Injury Rating 36 DAT (Bermudagrass; 16 g/ha): 0 | Plant Injury Rating 36 DAT (Bermudagrass; 32 g/ha): 0 | Plant Injury Rating 36 DAT (Annual bluegrass; 16 g/ha): 100 | Plant Injury Rating 36 DAT (Annual bluegrass; 32 g/ha): 100 | Plant Injury Rating 36 DAT (Pineapple; 16 g/ha): 0 | Plant Injury Rating 36 DAT (Pineapple; 32 g/ha): 0 | Plant Injury Rating 36 DAT (Perennial ryegrass; 16 g/ha): 100 | Plant Injury Rating 36 DAT (Perennial ryegrass; 32 g/ha): 100 | Plant Injury Rating 36 DAT (Annual ryegrass; 16 g/ha): 100 | Plant Injury Rating 36 DAT (Annual ryegrass; 32 g/ha): 100 | Plant Injury Rating 36 DAT (Forage fescue; 16 g/ha): 100 | Plant Injury Rating 36 DAT (Forage fescue; 32 g/ha): 100 | Plant Injury Rating 36 DAT (Yellow nutsedge [1]; 16 g/ha): 60 | Plant Injury Rating 36 DAT (Yellow nutsedge [1]; 32 g/ha): 100 | Injury ratings (Yellow nutsedge [2]): 80 | Injury ratings (Citrus): 0 | Plant Injury Rating 27 DAT (Narrowleaf panicum; 8 g/ha): 70 | Plant Injury Rating 27 DAT (Narrowleaf panicum; 16 g/ha): 100 | Plant Injury Rating 27 DAT (Narrowleaf panicum; 32 g/ha): 100 | Plant Injury Rating 27 DAT (Narrowleaf panicum; 64 g/ha): 100
